Consider seven molecules from article PMC2837410, “Structural Basis of Cell Wall Cleavage by a Staphylococcal Autolysin” (PLoS Pathogens, 2010).

Assay [1] deals with wt amidase. The settings on record: chelating agents likely remove the zinc ion; cited from earlier work. The source says:
In order to determine whether amino acids in the vicinity of the zinc ion are required for enzymatic activity, residues H60, H177 and D179 were separately mutated to alanine. All three mutant proteins were expressed and purified to homogeneity. None of them has lytic activity in zymogram gels with heat-inactivated S. aureus cells, whereas the wild type (wt) protein is able to lyse cell walls efficiently (Figure 4A). Similar results were obtained with lysis assays using purified S. aureus PGN (Figure 4B). Our results therefore provide evidence for a critical role of the zinc ion and its surroun ...

For assay [2], the target named is T1, AmiE wt (Staphylococcus epidermidis, UniProt O33635).
T1 construct: A DNA fragment coding for amino acids 303 to 516 of the atlE gene product; GST (N, cleaved yes); made in house; host or cells: Escherichia coli BL21 (DE3)
T1 sequence (O33635 303-516): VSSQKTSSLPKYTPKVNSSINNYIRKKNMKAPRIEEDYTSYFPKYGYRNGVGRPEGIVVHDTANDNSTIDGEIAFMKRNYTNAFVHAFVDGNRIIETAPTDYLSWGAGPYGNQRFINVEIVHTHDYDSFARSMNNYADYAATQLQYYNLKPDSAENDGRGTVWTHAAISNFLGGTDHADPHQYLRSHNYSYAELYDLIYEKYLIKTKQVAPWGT
The assay is described as follows: MTP digestion assay (cleavage of PGN-derived ligands), wt enzyme. In kind it is biochemical. The settings on record: 10 µg protein + 0.1 mg ligand in 10 µl 50 mM Tris/HCl pH 8.0, 150 mM NaCl; 72 h at 37°C; products analysed by HPLC and ESI-MS. As to the method: (§1) To determine the minimal PGN sequence that can still be cleaved by AmiE, we performed cleavage assays with three PGN-derived compounds: MTP, N-acetylmuramyl-L-alanyl-D-iso-glutamine (MDP), and N-acetyl-D-glucosaminyl-(1,4)-N-acetylmuramyl-L-alanyl-D-iso-glutamine (GMDP). MDP and GDMP were purchased from Sigma and Calbiochem, respectively, whereas MTP was synthesized as described. All ligands were incubated with the wt protein for 72 h at 37°C, followed by analysis of products with HPLC and ESI mass spectrometry. […] The m/z profile of the H177A mutant is dominated by peaks at m/z 621 and 649 (Figure 5, right). The latter peak represents the MTP educt plus an unknown additional mass, which probably originates from the synthesis. Both peaks are replaced by peaks at m/z 346 and 374 in the profile for the wt protein (Figure 5, left). The first peak corresponds to the expected mass of the cleaved peptide stem while the second one is the digestion product of the compound with the higher mass. We conclude that cleavage by AmiE requires the presence of a third amino acid in the peptide stem. As the lysine is quite distant from the active site, it is most likely not required for the catalytic reaction itself but likely serves to anchor the ligand in the binding site. Similar cleavage results have previously been obtained for the catalytically active PGRP-L protein, which also requires MTP for cleavage.
For each assay, 10 µg of wt or mutant protein and 0.1 mg of the appropriate ligand were incubated in 10 µl gel filtration buffer (50 mM Tris/HCl pH 8.0, 150 mM NaCl). The reaction was stopped after 72 h by adding 100 µl acetonitrile with 0,05% (v/v) formic acid. The sample was then frozen at -20°C until used for ESI-MS.

Assay [3] deals with T2, AmiE H177A (Staphylococcus epidermidis, UniProt O33635, H479A).
T2 construct: A DNA fragment coding for amino acids 303 to 516 of the atlE gene product; GST (N, cleaved yes); made in house; host or cells: Escherichia coli
T2 sequence (O33635 303-516 H479A): T1 sequence (O33635 303-516) with H177A
The assay is described as follows: MTP digestion assay, inactive mutant (negative control). It counts as biochemical. The settings on record: 10 µg protein + 0.1 mg ligand in 10 µl 50 mM Tris/HCl pH 8.0, 150 mM NaCl; 72 h; ESI-MS. As to the method: as §1, with “Similar cleavage results have previously been obtained for the catalytically active PGRP-L protein, which also requires MTP for cleavage.” left out

The target in assay [4] is T3, AmiE (Staphylococcus epidermidis, UniProt O33635).
T3 construct: A DNA fragment coding for amino acids 303 to 516 of the atlE gene product; GST (N, cleaved yes); made in house; host or cells: Escherichia coli BL21 (DE3)
T3 sequence (O33635 303-516): T1 sequence (O33635 303-516)
The assay is described as follows: Digestion assay with modified AmiE substrates (Mca substrate derivatives). It counts as biochemical. The settings on record: 70 µM substrate, 7.2 µM AmiE, 37°C, 50 mM sodium phosphate buffer pH 7.2, 6 h; stopped with 1% TFA; RP-HPLC C-18, UV 214 nm. As to the method: The five substrates, each at a concentration of 70 µM, were processed by 7.2 µM AmiE at 37°C in digestion buffer (50 mM sodium phosphate buffer, pH 7.2). After 1, 3 and 6 h, the reaction was stopped by adding trifluoroacetic acid to a final concentration of 1%. Decrease of the initial substrate and formation of the Mca product were analyzed by analytical RP-HPLC using a binary HPLC system (Shimadzu, Tokyo, Japan) with a UV detector, a Nucleosil C-18 column (5 µm particle size, 150×2 mm) from Dr Maisch GmbH (Tuebingen, Germany) and a two solvent system: (A) 0.055% (v/v) TFA in water and (B) 0.05% TFA in 80% acetonitrile in water. The substrate was well separated from the generated cleavage product Mca, and was quantified at 214 nm.

Changes are numbered by the printed parent chain.

With `c1cnc2c(c1)ccc1cccnc12` [phenanthroline], the “effect of chelating agent on activity of the wt amidase” value in assay [1] is “loss of activity”.
Turning to “N-acetylmuramyl-L-alanyl-D-iso-glutamine [MDP]”, the “cleavage of ligand by the wt enzyme” value in assay [2] was “neither MDP nor GMDP are cleaved”.
Take “N-acetylmuramyl-L-alanyl-D-iso-glutamyl-L-lysine [MTP]”: the “cleavage of ligand by the wt enzyme” value in assay [2] is “cleaved into two fragments”. The “cleavage of ligand by the H177A mutant” value in assay [3] is reported as “does not cleave”.
In the case of “N-acetyl-D-glucosaminyl-(1,4)-N-acetylmuramyl-L-alanyl-D-iso-glutamine [GMDP]”, in assay [2], the “cleavage of ligand by the wt enzyme” value is on record as “neither MDP nor GMDP are cleaved”.
On to `O=C(O)CN(CCN(CC(=O)O)CC(=O)O)CC(=O)O` [EDTA], for which, in assay [1], the “effect of chelating agent on activity of the wt amidase” value was “loss of activity”.
With “Mca-Ala-D-iGln-Ala-D-Ala-Arg-OH [Ala-substrate]”, in assay [4], the “amount of substrate cleaved after 6 h” value is “Approximately 10%”.
As for “Mca-Ala-D-iGln-Lys-D-Ala-Arg-OH [Lys-substrate]”, the “amount of substrate cleaved after 6 h” value in assay [4] was “almost half”.
